Test [1] addresses T1, Ghrelin/GHRP/GHS Receptor (Rattus norvegicus, UniProt O08725). The experiment in a line: In vivo GH release in rat after i.v. peptide (serum GH by RIA). As to the method:
For the in vivo assay of GH Release in rat, immature female Sprague Dawley rats were obtained from Charles River from Wilmington, Mass. After arrival they were housed at 25° C. with a 14:10 h light:dark cycle. Water and Purina rat chow were available at libitum. Pups were weaned at 21 days of age.
Immature twenty six day old female Sprague Dawley rats, 3-6 rats per treatment dose, were pretreated with pentobarbital 20 minutes before iv injection of vehicle/peptide or peptide plus stimulator. Injection was made as a 0.1 ml solution. For the non-pentobarbital treated rat assay, peptides were administered iv into the tail vein of conscious rats. All animals were sacrificed by guillotine after iv peptide or vehicle. Trunk blood was collected at +10-15 minutes […], allowed to clot, centrifuged and serum stored until assayed for GH levels by RIA. The GH RIA reagents were distributed by the NIH. Control data was collected from rats treated with only the corresponding vehicle in the absence of peptide or stimulator. Control stimulated data was collected from rats treated with stimulator alone in the absence of any peptide.

Test [2] addresses T1, Ghrelin/GHRP/GHS Receptor. Kind of test: GH release from cell culture of pituitary cells. Further details: After dispersion, the cells were collected by centrifugation, wash with DMEM and placed into culture well; endogenous in cells; host or cells: dispersed primary rat pituitary cells, 4 days in culture. It is filed as cell-based. As for the experimental part: In vitro GH Release-Female rats of the CD-1 strain were housed in a constant temperature room at 24° C. with 14 h light and 10 h darkness. The rats were fed Purina Rat chow and water at libitum. All studies were started between 0800-1000 hours. Pituitaries of mature female Sprague Dawley rats were rapidly removed after decapitation, neurointermediate lobe discarded and then placed in a pH 7.4 buffer. The pituitaries were cut into ˜3-mm pieces and then transferred to a flask containing HEPS buffer with trypsin and incubated at 37° C. Cells were triturated several times during this period. After dispersion, the cells were collected by centrifugation, wash with DMEM and placed into culture well. Cell cultures were maintained for 4 days at 37° with 8% CO2 added to the incubator atmosphere. After 4 days in culture, cells were washed with lactated Ringer's solution adjusted to pH 7.2-7.4 and then vehicle, peptide alone or peptide plus stimulator was added to media. Incubation time was 60-120 minutes after which media was removed from each well for GH determination. The GH RIA reagents were distributed by the NIH. Control data was collected from cell cultures treated with only the corresponding vehicle in the absence of peptide or stimulator. Control stimulated data was collected from cell cultures treated with stimulator alone in the absence of any peptide.

The mark [3] stands for this setting: Table 3, peptide alone 1 μg i.v.
[4] abbreviates: Table 3, peptide alone 3 μg i.v.
Where [5] appears, read: Table 3, peptide alone 10 μg i.v.
Setting [6] is: Table 3, peptide alone 30 μg i.v.
Setting [7] is: Table 3, peptide alone 100 μg i.v.
[8] abbreviates: Table 5, peptide alone 1 μg i.v.
The mark [9] stands for this setting: Table 5, peptide alone 10 μg i.v.
[10] abbreviates: Table 5, peptide alone 30 μg i.v.
Where [11] appears, read: Table 5, peptide alone 3 μg i.v.
[12] abbreviates: peptide antagonist 10 μg i.v. + stimulator 1 μg.
Where [13] appears, read: peptide antagonist 30 μg i.v. + stimulator 1 μg.
Setting [14] is: peptide antagonist 100 μg i.v. + stimulator 1 μg.
Where [15] appears, read: Pentobarbital Rats, peptide alone 30 μg i.v.
The mark [16] stands for this setting: Pentobarbital Rats, peptide alone 100 μg i.v.

Consider 20 substances from patent US9315546B2, “Growth hormone secretatogue receptor antagonists and uses thereof” (The Administrators of the Tulane Educational Fund, priority 2010, dated 2016).

Where “and” joins values, the source holds several entries; their conditions need not be identical. Equal values may be shown once. Where no end group is shown, it is not given here. [ ]: non-standard residue; d: D form. d2Nal = N[C@H](Cc1ccc2ccccc2c1)C(=O)O; Orn = NCCC[C@H](N)C(=O)O; GABA = NCCCC(=O)O; βAla = NCCC(=O)O

T1 sequence (O08725 whole entry): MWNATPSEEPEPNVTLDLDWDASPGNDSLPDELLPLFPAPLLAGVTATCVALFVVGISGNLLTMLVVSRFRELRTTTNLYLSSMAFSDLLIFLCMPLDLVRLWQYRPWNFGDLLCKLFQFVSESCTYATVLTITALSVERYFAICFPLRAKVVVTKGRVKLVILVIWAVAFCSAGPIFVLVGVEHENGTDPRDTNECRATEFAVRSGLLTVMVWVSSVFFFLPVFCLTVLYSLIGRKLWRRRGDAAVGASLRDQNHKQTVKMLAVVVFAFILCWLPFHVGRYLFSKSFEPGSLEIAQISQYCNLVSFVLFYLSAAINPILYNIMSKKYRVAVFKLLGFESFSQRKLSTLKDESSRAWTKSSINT

In the case of “DcyclohexylAla-Ala-Phe-DTrp-Lys-NH2 [3-DcyclohexylAla-Ala-Phe-DTrp-Lys-NH2]”, the “Unstimulated Basal GH release” value was 199 ± 63 ng/mL in test [1] (setting [3]); 266 ± 68 ng/mL in test [1] (setting [4]); 199 ± 23 ng/mL in test [1] (setting [5]); 346 ± 82 ng/mL in test [1] (setting [6]); 350 ± 61 ng/mL in test [1] (setting [7]).
Take “[dA][d2Nal][dA][dW]FK-NH2 [9-DAla-DβNal-DAla-DTrp-Phe-Lys-NH2]”: the figures for the “Unstimulated Basal GH release” value in test [1] (setting [3]), in test [1] (setting [4]) and in test [1] (setting [5]) were 184 ± 55 ng/mL, 467 ± 201 ng/mL and 244 ± 107 ng/mL, respectively.
With “αγAbu-DTrp-DTrp-Orn-NH2 [3-αγAbu-DTrp-DTrp-Orn-NH2]”, the “Unstimulated Basal GH release” value was 118 ± 16 ng/mL in test [1] (setting [8]), 126 ± 27 ng/mL in test [1] (setting [9]) and 79 ± 31 ng/mL in test [1] (setting [10]).
In the case of “[d2Nal]AW[dF]A-NH2 [1-DβNal-Ala-Trp-DPhe-Ala-NH2]”, the “Unstimulated Basal GH release” value in test [1] (setting [3]) stood at 623 ± 60 ng/mL; in test [1] (setting [4]) it was 694 ± 70 ng/mL; in test [1] (setting [5]), 654 ± 58 ng/mL; in test [1] (setting [6]) it was 713 ± 71 ng/mL.
Turning to “DThr-DαNal-DTrp-DPro-Arg-NH2 [5-DThr-DαNal-DTrp-DPro-Arg-NH2]”, the “Unstimulated Basal GH release” value in test [1] (setting [8]) is 60 ± 5 ng/mL; in test [1] (setting [11]), 130 ± 24 ng/mL; in test [1] (setting [9]) it was 134 ± 31 ng/mL.
For the substance “[GABA][dW][dW][Orn]-NH2 [9-γAbu-DTrp-DTrp-Orn-NH2]”, the “Unstimulated Basal GH release” value in test [1] (setting [8]) turned out to be 82 ± 28 ng/mL; in test [1] (setting [9]), 90 ± 5 ng/mL; in test [1] (setting [10]), 113 ± 32 ng/mL.
On to “Glyψ[CH2NH]-DβNal-Ala-Trp-DPhe-Lys-NH2 [1-Glyψ[CH2NH]-DβNal-Ala-Trp-DPhe-Lys-NH2]”, for which the “Stimulated GH release” value in test [1] (peptide antagonist 10 μg i.v. + stimulator 0.3 μg) is 1112 ± 200 ng/mL; in test [1] (setting [12]), 2307 ± 176 ng/mL and 1842 ± 454 ng/mL; in test [1] (peptide antagonist 30 μg i.v. + stimulator 0.3 μg), 578 ± 82 ng/mL; in test [1] (setting [13]) it was 890 ± 236 ng/mL and 1135 ± 140 ng/mL.
For “[βAla]W[dA][dW]F-NH2 [10-βAla-Trp-DAla-DTrp-Phe-NH2]”, the “Unstimulated Basal GH release” value was 341 ± 46 ng/mL in test [1] (setting [6]) and 636 ± 171 ng/mL in test [1] (setting [7]).
As to “DcyclohexylAla-Ala-Trp-DPhe-NH2 [5-DcyclohexylAla-Ala-Trp-DPhe-NH2]”, the “Unstimulated Basal GH release” value came out at 181 ± 28 ng/mL in test [1] (setting [4]), 237 ± 18 ng/mL in test [1] (setting [5]), 354 ± 81 ng/mL in test [1] (setting [6]) and 771 ± 76 ng/mL in test [1] (setting [7]).
For “[dA]A[dA][dW]FK-NH2 [6-DAla-Ala-DAla-DTrp-Phe-Lys-NH2]”, the “Unstimulated Basal GH release” value is 228 ± 76 ng/mL in test [1] (setting [9]); 172 ± 14 ng/mL in test [1] (setting [10]); 153 ± 45 ng/mL in test [1] (Table 5, peptide alone 100 μg i.v.).
Consider “[dA][d2Nal]AW[dF]K-NH2 [reference compound]”, for which the “Stimulated Control GH release (stimulator alone)” value in test [2] (Table 6, DAla-DβNal-Ala-Trp-DPhe-Lys-NH2 10 ng/ml) is 2420 ± 0 ng/mL and 2811 ± 229 ng/mL and 2385 ± 8 ng/mL; in test [2] (Table 9, DAla-DβNal-Ala-Trp-DPhe-Lys-NH2 1 ng/ml), 1232 ± 34 ng/mL; in test [2] (Table 10, DAla-DβNal-Ala-Trp-DPhe-Lys-NH2 1 ng/ml), 905 ± 6 ng/mL and 1153 ± 36 ng/mL and 1216 ± 26 ng/mL and 1461 ± 58 ng/mL and 1016 ± 18 ng/mL and 859 ± 4 ng/mL and 1060 ± 24 ng/mL; in test [2] (Table 11, DAla-DβNal-Ala-Trp-DPhe-Lys-NH2 1 ng/ml) it was 905 ± 6 ng/mL and 947 ± 11 ng/mL and 947 ± 33 ng/mL and 1016 ± 18 ng/mL; in test [1] (DAla-DβNal-Ala-Trp-DPhe-Lys-NH2 0.3 μg, rat, Table 2), 1412 ± 400 ng/mL and 2253 ± 252 ng/mL; in test [1] (DAla-DβNal-Ala-Trp-DPhe-Lys-NH2 1 μg, rat, Table 2), 3214 ± 276 ng/mL and 3105 ± 429 ng/mL and 2406 ± 288 ng/mL and 2825 ± 134 ng/mL and 3104 ± 429 ng/mL. Besides, the “Stimulated Control GH release (stimulator alone)” value in test [1] (Table 4, Non-Pentobarbital Rats, DAla-DβNal-Ala-Trp-DPhe-Lys-NH2 10 μg) was determined as 72 ± 9 ng/mL; in test [1] (Table 4, Pentobarbital Rats, DAla-DβNal-Ala-Trp-DPhe-Lys-NH2 0.3 μg) it was 5052 ± 511 ng/mL; in test [1] (Table 4, Pentobarbital Rats, DAla-DβNal-Ala-Trp-DPhe-Lys-NH2 1 μg), 4950 ± 98 ng/mL.
Consider “Alaψ[CH2NH]His-DTrp-Ala-Trp-DPhe-Lys-NH2”, for which the “Unstimulated Basal GH release” value worked out at 127 ± 32 ng/mL in test [1] (setting [8]) and 147 ± 37 ng/mL in test [1] (setting [11]).
Consider “K[dH][dW]F-NH2 [8-Lys-DHis-DTrp-Phe-NH2]”, for which, in test [1] (setting [9]), the “Unstimulated Basal GH release” value is 121 ± 24 ng/mL.
On to “Tyr-DAla-Sar-NMePhe-NH2 [2-Tyr-DAla-Sar-NMePhe-NH2]”, for which the “Stimulated GH release (P + S)” value in test [1] (Non-Pentobarbital Rats, peptide 30 μg i.v. + stimulator 10 μg) came out at 24 ± 6 ng/mL. In addition, the “Unstimulated GH release (−S)” value in test [1] (Non-Pentobarbital Rats, peptide alone 30 μg i.v.) is 18 ± 4 ng/mL.
Take Glyψ[CH2NH]-DβNal-DLys-Trp-DPhe-Lys-NH2: the “Stimulated GH release” value was found to be 2305 ± 320 ng/mL in test [1] (peptide antagonist 1 μg i.v. + stimulator 1 μg); 1990 ± 196 ng/mL in test [1] (peptide antagonist 3 μg i.v. + stimulator 1 μg); 1550 ± 284 ng/mL in test [1] (setting [12]); 946 ± 133 ng/mL in test [1] (setting [13]); 462 ± 122 ng/mL in test [1] (setting [14]).
As to “αγAbu-DTrp-DTrp-Ser-NH2 [1-αγAbu-DTrp-DTrp-Ser-NH2]”, the “Unstimulated Basal GH release” value in test [1] (setting [8]) came to 80 ± 35 ng/mL; in test [1] (setting [9]), 62 ± 15 ng/mL; in test [1] (setting [10]), 67 ± 8 ng/mL.
Regarding “[dA][d2Nal][dK][dW]FK-NH2 [3-DAla-DβNal-DLys-DTrp-Phe-Lys-NH2]”, the “Stimulated GH release (P + S)” value stood at 2864 ± 828 ng/mL in test [1] (Pentobarbital Rats, peptide 30 μg i.v. + stimulator 1 μg) and 1198 ± 114 ng/mL in test [1] (Pentobarbital Rats, peptide 100 μg i.v. + stimulator 1 μg). For the same substance, the “Unstimulated GH release (−S)” value in test [1] (setting [15]) stood at 323 ± 50 ng/mL; in test [1] (setting [16]), 812 ± 6 ng/mL. Moreover, the “Stimulated GH release” value in test [1] (setting [13]) turned out to be 2884 ± 828 ng/mL; in test [1] (setting [14]), 1198 ± 114 ng/mL.
For the substance “[dA][d2Nal]AT[dT]K-NH2 [4-DAla-DβNal-Ala-Thr-DThr-Lys-NH2]”, the “Unstimulated Basal GH release” value worked out at 255 ± 38 ng/mL in test [1] (setting [4]), 288 ± 31 ng/mL in test [1] (setting [6]) and 386 ± 57 ng/mL in test [1] (setting [7]).
Turning to “[d2Nal]AW[dF]L-NH2 [7-DβNal-Ala-Trp-DPhe-Leu-NH2]”, the “Unstimulated Basal GH release” value in test [1] (setting [4]) worked out at 253 ± 79 ng/mL; in test [1] (setting [5]), 277 ± 43 ng/mL; in test [1] (setting [6]), 347 ± 66 ng/mL; in test [1] (setting [7]), 645 ± 117 ng/mL.
Regarding “[dK][d2Nal]AW[dF]K-NH2 [1-DLys-DβNal-Ala-Trp-DPhe-Lys-NH2]”, the “Stimulated GH release (P + S)” value in test [1] (Pentobarbital Rats, peptide 3 μg i.v. (grid head; alignment uncertain) + stimulator 0.3 μg) came out at 5232 ± 346 ng/mL; in test [1] (Pentobarbital Rats, peptide 10 μg i.v. (grid head; alignment uncertain) + stimulator 0.3 μg) it was 3404 ± 396 ng/mL; in test [1] (Pentobarbital Rats, peptide 30 μg i.v. + stimulator 0.3 μg), 704 ± 169 ng/mL. Also, the “Unstimulated GH release (−S)” value in test [1] (Pentobarbital Rats, peptide alone 3 μg i.v. (grid head; alignment uncertain)) worked out at 616 ± 169 ng/mL; in test [1] (Pentobarbital Rats, peptide alone 10 μg i.v. (grid head; alignment uncertain)), 847 ± 17 ng/mL; in test [1] (setting [15]), 629 ± 146 ng/mL; in test [1] (setting [16]) it was 228 ± 45 ng/mL.
